According to patent US20240091244A1, “PHARMACEUTICAL COMPOSITIONS COMPRISING PICROSIDE” (SAVA HEALTHCARE LIMITED, priority 2021, published 2024):

How the values were obtained:
[1] = system: mice with cyclophosphamide induced neutropenia; test: Administration of Picroside I / Picroside II (injectable, subcutaneous) to mice with cyclophosphamide induced neutropenia; format: in vivo, Swiss albino mice; settings: for changes in body weight / clinical signs of toxicity and mortality: 1 mg/mouse/day subcutaneous for 5 days; for Total leukocyte count on Day 10 as compared to Group 2 / neutrophil count on Day 10 as compared to Group 2 / % Neutrophil (day 10) / neutrophil count compared with Group 1 (Normal control): 1 mg/mouse/day subcutaneous; for Total leukocyte count on Day 10 as compared to Group 2 / neutrophil count on Day 10 as compared to Group 2 / % Neutrophil (day 10): day 5 to day 10; for % Neutrophil (day 10) / neutrophil count compared with Group 1 (Normal control): day 10; for neutrophil count compared with Group 1 (Normal control): P<0.01; for % Neutrophil (day 3): day 3 after cyclophosphamide 150 mg/kg ip, before treatment (baseline of the group); for reversal of cyclophosphamide induced neutropenia: injection
Description: (§1) In-house bred Swiss albino mice were housed under standard laboratory conditions, such as, air-conditioned with adequate fresh air supply (air changes 12-15 per hour), room temperature of 21.1-23.2° C. and relative humidity of 55-69%, with 12 hours light and 12 hours dark cycle were strictly maintained in the experimental room. The mice were acclimatized for a minimum period of seven days to laboratory conditions.
(§2) The selected Swiss albino mice were randomized into four groups based on body weight, each group comprising of 6 mice. Group 2 and 3, 4 animals were treated with 150 mg/kg of cyclophosphamide through intraperitoneal route on Day 0 to initiate inducing neutropenia. On Day 3, the animals of group 2, 3 and 4, reflected the cyclophosphamide induced neutropenication when compared with Group 1 (Control) mice. On day 4, mice from Groups 2, 3 and 4 were again injected with a single dose of 100 mg/kg of cyclophosphamide. Total and differential count (neutrophils, lymphocytes, and monocytes) was recorded on day 3. The neutrophil count on day 3 was compared between groups using One-way ANOVA followed by Dunnett's test or student ‘t’ test. P<0.05 was considered statistically significant.
Cyclophosphamide related neutropenia was induced in mice subjects using method according to Example 6. Injectable composition was prepared using the method according to Example 5. The Picroside I composition was administered through subcutaneous route at a dose of 1 mg/mouse/day to the animals in Group 3 for 5 days respectively starting from day 5 ending at day 10. Picroside II composition was administered through subcutaneous route at a dose of 1 mg/mouse/day to the animals in Group 4 for 5 days respectively starting from day 5 ending at day 10. On day 10, again blood was collected to count the total leucocyte count and differential count (neutrophils, lymphocytes, and monocytes) manually. The neutrophil count on day 10 was compared between groups using One-way ANOVA followed by Dunnett's test or student ‘t’ test. P<0.05 was considered statistically significant.

[2] = system: cyclophosphamide induced hepatotoxicity; test: Effect in cyclophosphamide induced hepatotoxicity (AST and ALT levels); format: in vivo, Swiss albino mice; settings: for ALT (IU/L) / AST (IU/L): day 5 to day 10, Picroside I 1 mg/mouse/day, G-CSF 2 μg/mouse/day, cyclophosphamide treated mice
Description: as §2
(§3) Cyclophosphamide related neutropenia was induced in mice subjects using method according to Example 6. Group 1 was marked vehicle control group, Group 2 was marked cyclophosphamide control, Group 3 was marked treated with Picroside I and Group 4 was marked treated with G-CSF treated. The Picroside I composition was administered through subcutaneous route at a dose of 1 mg/mouse/day to the animals in Group 3 for 5 days respectively starting from day 5 ending at day 10. The G-CSF composition was administered through subcutaneous route at a dose of 2 μg/mouse/day to the animals in Group 4 for 5 days respectively starting from day 5 ending at day 10. On day 10, again blood was collected to count the total leucocyte count and differential count (neutrophils, lymphocytes, and monocytes) manually. The neutrophil count on day 10 was compared between groups using One-way ANOVA followed by Dunnett's test or student ‘t’ test. P<0.05 was considered statistically significant. Additionally, hepatotoxicity was observed by investigating ALT and AST levels.

[3] = Stability analysis of injectable composition of Picroside I and 2.5% PEG400 by HPLC quantitative analysis; format: physicochemical; settings: 1 mg Picroside I in 2.5% PEG400; for % Result (1 month): HPLC 220 nm
Description: The purified Picroside I prepared by the methods according to Example 1, 2, and 3 was used for the said injection composition. Injection preparation was prepared by dissolving 1 mg Picroside I in solvent, controlling pH to about 4-land then filling in ampules followed by subsequent sterilizing by conventional injection preparation method. For comparative compositions, different solvents such as methanol, 2.5% PEG400, 5% PEG400, 5% DMSO, 5% ethyl lactate, and 1.4% propylene glycol were used for Picroside I solubility.
The solutions were kept for sonication for 15 min and left the solutions stand at room temperature for 1 hour. HPLC was used for quantitative analysis.
Three compositions of 1 mg Picroside I and 2.5% PEG400 were kept for sonication for 15 min and left to stand at room temperature (RT), 2-8° C. and 40° C., 75% RH for 1 month. and injected (20 μL) into HPLC at 220 nm for quantitative analysis.

[4] = system: mice with cyclophosphamide induced neutropenia; test: Comparative administration of Picroside I and G-CSF to mice with cyclophosphamide induced neutropenia; format: in vivo, Swiss albino mice; settings: for % Neutrophil (day 0): day 0, before cyclophosphamide (baseline of the group); for % Neutrophil (day 3): day 3 after cyclophosphamide, before treatment; for % Neutrophil (day 10): Picroside I 1 mg/mouse/day, G-CSF 2 μg/mouse/day
Description: as §1, §2, §3

[5] = system: mice with cyclophosphamide induced neutropenia; test: Administration of Picroside I (oral tablets) to mice with cyclophosphamide induced neutropenia; format: in vivo, Swiss albino mice; settings: for Neutrophil (10^9/L) (day 10) / WBC (10^9/L) (day 10): day 5 to day 10; for Neutrophil (10^9/L) (day 3) / WBC (10^9/L) (day 3): day 3, before treatment (baseline)
Description: as §1, §2
Cyclophosphamide related neutropenia was induced in mice subjects using method according to Example 6. Oral tablet composition was prepared using the method according to Example 4. The Picroside I composition was administered orally at a dose of 2 mg/mouse/day (2 tablets) to the animals in Group 1 and Group 2 for 5 days respectively starting from day 5 ending at day 10. For a comparative study, oral composition was administered using distilled water and PEG. Specifically, oral tablets were administered in distilled water to mice in Group 1 and in 5% PEG to mice in Group 2. On day 10, again blood was collected to count the total leucocyte count and differential count (neutrophils, lymphocytes, and monocytes) manually. The neutrophil count on day 10 was compared between groups using One-way ANOVA followed by Dunnett's test or student ‘t’ test. P<0.05 was considered statistically significant.

[6] = 1 mg/mouse/day subcutaneous, p<0.001
[7] = Picroside I 1 mg/mouse/day vs G-CSF 2 μg/mouse/day, subcutaneous
[8] = 2 mg/mouse/day oral, in distilled water (Group 1) and in 5% PEG (Group 2)
[9] = Group 1, 2 mg/mouse/day oral (2 tablets) in distilled water
[10] = Group 1, tablets in distilled water
[11] = Group 2, 2 mg/mouse/day oral (2 tablets) in 5% PEG

## COc1cc(C(=O)O[C@H]2[C@@H]3C=CO[C@@H](O[C@@H]4O[C@H](CO)[C@@H](O)[C@H](O)[C@H]4O)[C@@H]3[C@@]3(CO)O[C@@H]23)ccc1O [Picroside II]
[1]
  changes in body weight: no treatment related changes in body weight
  clinical signs of toxicity and mortality: no clinical signs of toxicity and mortality
  Total leukocyte count on Day 10 as compared to Group 2: significant increase
  neutrophil count on Day 10 as compared to Group 2: significant increase
  % Neutrophil (day 10): 32.83%
  neutrophil count compared with Group 1 (Normal control): increased neutrophil count significantly
  % Neutrophil (day 3): 21.83%
  reversal of cyclophosphamide induced neutropenia: significantly reverses

## O=C(/C=C/c1ccccc1)OC[C@H]1O[C@@H](O[C@@H]2OC=C[C@H]3[C@H](O)[C@@H]4O[C@]4(CO)[C@@H]23)[C@H](O)[C@@H](O)[C@@H]1O [Picroside I]
[1]
  changes in body weight: no treatment related changes in body weight
  clinical signs of toxicity and mortality: no clinical signs of toxicity and mortality
  Total leukocyte count on Day 10 as compared to Group 2: significant increase
  neutrophil count on Day 10 as compared to Group 2: significant increase
  % Neutrophil (day 10): 32.67%
  neutrophil count compared with Group 1 (Normal control): increased neutrophil count significantly
  % Neutrophil (day 3): 20.83%
  reversal of cyclophosphamide induced neutropenia: significantly reverses
[2]; [6]
  ALT levels when compared to the Group 2: significant reversal
  AST levels when compared to the Group 2: significant reversal
[2]; [7]
  decrease in AST and ALT relative to G-CSF treatment: comparable
[2]; subcutaneous
  ALT (IU/L): 37.16 IU/L
  AST (IU/L): 50.32 IU/L
[3]; RT, 2-8° C. and 40° C., 75% RH
  stability over a period of 1 month: excellent stability
[3]; stored at 2-8° C. for 1 month
  % Result (1 month): 96.59%
[3]; stored at 40° C., 75% RH for 1 month
  % Result (1 month): 86.89%
[3]; stored at RT for 1 month
  % Result (1 month): 102.33%
[4]; 1 mg/mouse/day subcutaneous, day 5 to day 10
  effect on cyclophosphamide induced decrease in % neutrophil: alleviation
[4]; [7]
  observed changes in % neutrophil relative to G-CSF treatment: comparable to that of G-CSF treatment
[4]
  % Neutrophil (day 0): 46.00%
  % Neutrophil (day 3): 6.600%
[4]; subcutaneous, day 5 to day 10
  % Neutrophil (day 10): 23.90%
[5]; 2 mg/mouse/day oral for 5 days
  changes in body weight: no treatment related changes in body weight
  clinical signs of toxicity and mortality: no clinical signs of toxicity and mortality
[5]; [8]
  Total leukocyte count on Day 10 as compared that on Day 3: significant increase
  neutrophil count on Day 10 as compared that on Day 3: significant increase
[5]; [9]
  Neutrophil (10^9/L) (day 10): 1.58 10^9/L
  WBC (10^9/L) (day 10): 9.5 10^9/L
[5]; [10]
  Neutrophil (10^9/L) (day 3): 0.38 10^9/L
  WBC (10^9/L) (day 3): 1.75 10^9/L
[5]; [11]
  Neutrophil (10^9/L) (day 10): 1.03 10^9/L
  WBC (10^9/L) (day 10): 8.9 10^9/L
[5]; Group 2, tablets in 5% PEG
  Neutrophil (10^9/L) (day 3): 0.31 10^9/L
  WBC (10^9/L) (day 3): 2.01 10^9/L
[5]; oral tablets
  reversal of cyclophosphamide induced neutropenia: significantly reverses

B1: G-CSF: Granulocyte Colony Stimulating Factor, FDA approved drug for treating severe neutropenia; comparator (protein, UniProt P09919 31-207, looked up)
Granulocyte …: TPLGPASSLPQSFLLKCLEQVRKIQGDGAALQEKLVSECATYKLCHPEELVLLGHSLGIPWAPLSSCPSQALQLAGCLSQLHSGLFLYQGLLQALEGISPELGPTLDTLQLDVADFATTIWQQMEELGMAPALQPTQGAMPAFASAFQRRAGGVLVASHLQSFLEVSYRVLRHLAQP
[2]; subcutaneous
  ALT (IU/L): 36.17 IU/L
  AST (IU/L): 50.54 IU/L
[4]
  % Neutrophil (day 0): 46.10%
  % Neutrophil (day 3): 6.700%
[4]; subcutaneous, day 5 to day 10
  % Neutrophil (day 10): 28.20%
